Assay results published in patent US20060084135A1, “Compositions for manipulating the lifespan and stress response of cells and organisms” (priority 2003, published 2006).

Legend:
[1] = tested on: rDNA silencing (RDN1::URA3); experiment: Ribosomal DNA silencing assay (URA3 reporter); format: cell-based, S. cerevisiae
Method: Yeast lifespans were determined as in FIG. 2. […] Frequencies were determined by loss of the ADE2 marker gene from the rDNA locus (RDN1). […] Pre-treated cells (RDN1::URA3) were harvested and spotted as 10-fold serial dilutions on either SC or SC with 5-fluororotic acid (5-FOA). In this assay, increased rDNA silencing results in increased survival on 5-FOA medium.
Ribosomal DNA silencing assays using the URA3 reporters were performed as previously described by Bitterman et al. (J Biol Chem 277, 45099-107 (2002)). Ribosomal DNA recombination frequencies were determined by plating W303AR cells (Sinclair, D. A. and Guarente, L. Cell 91, 1033-42 (1997)) on YPD medium with low adenine/histidine and counting the fraction of half-red sectored colonies using Bio-Rad Quantity One software as described by Anderson et al. (J Biol Chem 277, 18881-90. (2002)). At least 6000 cells were analyzed per experiment and all experiments were performed in triplicate. All strains were pre-grown for 15 hours with the relevant compound prior to plating.

human recombinant SIRT2 = target: T1, human recombinant SIRT2 (Homo sapiens, UniProt Q8IXJ6); experiment: SIRT2 deacetylation assay (Fluor de Lys-SIRT2); format: biochemical; conditions: increasing concentrations; 25 μM Fluor de Lys-SIRT2, 25 μM NAD+
T1 sequence (Q8IXJ6 1-389): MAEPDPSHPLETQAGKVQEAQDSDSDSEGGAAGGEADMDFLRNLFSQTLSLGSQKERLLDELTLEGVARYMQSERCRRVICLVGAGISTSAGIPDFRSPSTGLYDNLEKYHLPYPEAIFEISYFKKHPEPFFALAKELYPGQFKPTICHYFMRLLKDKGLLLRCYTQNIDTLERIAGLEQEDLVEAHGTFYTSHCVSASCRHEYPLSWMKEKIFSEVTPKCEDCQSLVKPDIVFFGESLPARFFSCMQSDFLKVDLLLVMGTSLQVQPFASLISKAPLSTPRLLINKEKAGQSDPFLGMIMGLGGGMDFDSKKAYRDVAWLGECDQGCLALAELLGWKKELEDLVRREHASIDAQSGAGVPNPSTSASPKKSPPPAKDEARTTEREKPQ
Description: Yeast Sir2 and human SIRT1 are very homologous and differ from human SIRT2 by the addition of an N-terminal domain that is absent in SIRT2. […] Thus, based on the difference in structure of SIRT1 and SIRT2, i.e., the absence of an N-terminal domain, it is believed that the N-terminal domain of SIRT1 and Sir2 is necessary for activation by the compounds described herein. In particular, it is likely that the activator compounds described herein interact with the N-terminal portion of sirtuins. The N-terminal portion of SIRT1 that is necessary for the action of the compounds is from about amino acid 1 to about amino acid 176, and that of Sir2 is from about amino acid 1 to about amino acid 175.

Structure (SMILES): Oc1ccc(/C=C/c2cc(O)cc(O)c2)cc1 [Resveratrol, 3,5,4′-Trihydroxy-trans-stilbene]
- Effect on rDNA silencing [1]: only minor effects
- Effect on SIRT2 activity (human recombinant SIRT2): decrease
